From patent US12410160B2 (Gilead Sciences, Inc., priority 2021, dated 2025)
Like-named read-outs stand apart in the source and are kept apart here.

Experiments:
human KHK-C = human KHK-C (Homo sapiens (Human), UniProt P50053); assay: KHK Biochemical Assay (IC50), ADP-Glo, KHK-C; conditions: average of at least two separate assays
In short: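 ADP-Glo luminescence measured ADP made over a 4 h room-temperature reaction of ATP plus fructose, started after 30 min compound–enzyme pre-incubation. Buffer: 50 mM Hepes pH 7.4, 140 mM KCl, 5 mM MgCl2, 0.01% Triton-X. Enzyme was His-tagged, BL21 (DE3)-expressed, Ni-NTA-purified; compounds in 1:3 DMSO dilution series.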

HepG2 cells = assay: F1P Cell-Based Assay (EC50), 13C6-fructose-1-phosphate in HepG2 cells (cell culture medium or 50% human plasma)
[1] = Homo sapiens, HepG2, HepG2 cells, 50% human plasma, read-out: F1P 50% HP EC50
[2] = Homo sapiens, HepG2, read-out: F1P 10% FBS EC50, HepG2 cells, cell culture medium (10% FBS)
[3] = HepG2 cells, 50% human plasma, read-out: F1P 50% HP EC50
[4] = read-out: F1P 10% FBS EC50, HepG2 cells, cell culture medium (10% FBS)

human KHK-C, sequence (P50053 whole entry): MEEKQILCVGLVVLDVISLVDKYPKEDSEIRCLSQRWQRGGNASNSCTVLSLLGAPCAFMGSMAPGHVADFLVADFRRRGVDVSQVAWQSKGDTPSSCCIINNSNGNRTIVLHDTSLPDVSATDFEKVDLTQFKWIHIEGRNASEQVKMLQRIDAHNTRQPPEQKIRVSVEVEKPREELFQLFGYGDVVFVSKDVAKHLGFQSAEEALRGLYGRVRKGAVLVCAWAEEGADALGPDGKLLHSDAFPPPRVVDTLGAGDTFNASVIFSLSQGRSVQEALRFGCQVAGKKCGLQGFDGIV

Row | IC50 (human KHK-C) [nM] | EC50 (HepG2 cells; [1]) [nM] | EC50 (HepG2 cells; [2]) [nM] | EC50 (HepG2 cells; [3]) [nM] | EC50 (HepG2 cells; [4]) [nM] | Compound
1 | 61.2 | 254 | 126 |  |  | CN=S(C)(=O)c1cccc(-c2nc(N3C[C@@H](O)[C@@H]3C)nc3c2CCC3(F)F)c1 (stereo partly drawn) [Example 508, (3-(7,7-difluoro-2-((2S,3R)-3-hydroxy-2-methylazetidin-1-yl)-6,7-dihydro-5H-cyclopenta[d]pyrimidin-4-yl)phenyl)(methyl)(methylimino)-λ^6-sulfanone]
2 | 19.9 | 58.1 | 25.1 |  |  | C[C@H]1[C@H](O)CN1c1nc(-c2cccc(S(C)(=O)=O)c2)c2c(n1)C(F)(F)CC2 [Example 509, (2S,3R)-1-(7,7-difluoro-4-(3-(methylsulfonyl)phenyl)-6,7-dihydro-5H-cyclopenta[d]pyrimidin-2-yl)-2-methylazetidin-3-ol]
3 | 20.9 | 46.1 | 34.6 |  |  | CCS(=N)(=O)c1cccc(-c2nc(N3C[C@@H](O)[C@@H]3C)nc3c2CCC3(F)F)c1 (stereo partly drawn) [Example 511, (3-(7,7-difluoro-2-((2S,3R)-3-hydroxy-2-methylazetidin-1-yl)-6,7-dihydro-5H-cyclopenta[d]pyrimidin-4-yl)phenyl)(ethyl)(imino)-λ^6-sulfanone]
4 | 10.6 | 72.3 | 41.6 |  |  | C[C@H]1[C@H](O)CN1c1nc(-c2ccc(C3(N)COC3)c(C(F)(F)F)c2)c2c(n1)C(F)(F)CC2 [Example 514, (2S,3R)-1-(4-(4-(3-aminooxetan-3-yl)-3-(trifluoromethyl)phenyl)-7,7-difluoro-6,7-dihydro-5H-cyclopenta[d]pyrimidin-2-yl)-2-methylazetidin-3-ol]
5 | 29.7 | 126 | 59.1 |  |  | C[C@H]1[C@H](O)CN1c1nc(-c2ccc(C(F)(F)CN)cc2)c2c(n1)C(F)(F)CC2 [Example 515, (2S,3R)-1-(4-(4-(2-amino-1,1-difluoroethyl)phenyl)-7,7-difluoro-6,7-dihydro-5H-cyclopenta[d]pyrimidin-2-yl)-2-methylazetidin-3-ol]
6 | 2.2 | 23 | 10.1 |  |  | C[C@@H]1N(c2nc(-c3ccc4c(c3)CCNC43COC3)c3c(n2)C(F)(F)CC3)CC1(F)F [Example 519, (S)-6-(2-(3,3-difluoro-2-methylazetidin-1-yl)-7,7-difluoro-6,7-dihydro-5H-cyclopenta[d]pyrimidin-4-yl)-3,4-dihydro-2H-spiro[isoquinoline-1,3′-oxetane]]
7 | 11.1 | 109 | 49.8 |  |  | C[C@H]1[C@H](O)CN1c1nc(-c2ccc3c(c2)C2CC(C2)NC3=O)c2c(n1)C(F)(F)CC2 [Example 520, 7-(7,7-difluoro-2-((2S,3R)-3-hydroxy-2-methylazetidin-1-yl)-6,7-dihydro-5H-cyclopenta[d]pyrimidin-4-yl)-2,3,4,5-tetrahydro-1H-3,5-methanobenzo[c]azepin-1-one]
8 | 9.8 | > 100 | 68.4 |  |  | C[C@H]1[C@H](O)CN1c1nc(-c2ccc3c(c2)OCCNC32COC2)c2c(n1)C(F)(F)CC2 [Example 521, (2S,3R)-1-(4-(3,4-dihydro-2H-spiro[benzo[f][1,4]oxazepine-5,3′-oxetan]-8-yl)-7,7-difluoro-6,7-dihydro-5H-cyclopenta[d]pyrimidin-2-yl)-2-methylazetidin-3-ol]
9 | 44.5 | 454 | 53.3 |  |  | C[C@H]1CCN1c1nc2c(c(-c3ccc(Cl)c(S(N)(=O)=O)c3)n1)CCC2 [Example 522, (S)-2-chloro-5-(2-(2-methylazetidin-1-yl)-6,7-dihydro-5H-cyclopenta[d]pyrimidin-4-yl)benzenesulfonamide]
10 | 0.7 | 51.3 | 5.1 |  |  | C[C@H]1[C@H](F)CN1c1nc(-c2ccc3c(c2)OC[C@@H]3NS(C)(=O)=O)c2c(n1)C(F)(F)CC2 [Example 523, N—((R)-6-(7,7-difluoro-2-((2S,3R)-3-fluoro-2-methylazetidin-1-yl)-6,7-dihydro-5H-cyclopenta[d]pyrimidin-4-yl)-2,3-dihydrobenzofuran-3-yl)methanesulfonamide]
11 | 1 | 60.1 | 8.2 |  |  | C[C@H]1[C@@H](F)CN1c1nc(-c2ccc3c(c2)OC[C@@H]3NS(C)(=O)=O)c2c(n1)C(F)(F)CC2 [Example 524, N—((R)-6-(7,7-difluoro-2-((2S,3S)-3-fluoro-2-methylazetidin-1-yl)-6,7-dihydro-5H-cyclopenta[d]pyrimidin-4-yl)-2,3-dihydrobenzofuran-3-yl)methanesulfonamide]
12 | 2.7 |  |  | 65.3 | 26.2 | COc1cc(-c2nc(N3C[C@@H](O)[C@@H]3C)nc3c2CCC3(F)F)cc2c1[C@@H](NS(C)(=O)=O)CO2 [Example 529, N-(6-(7,7-difluoro-2-((2S,3R)-3-hydroxy-2-methylazetidin-1-yl)-6,7-dihydro-5H-cyclopenta[d]pyrimidin-4-yl)-4-methoxy-2,3-dihydrobenzofuran-3-yl)methanesulfonamide]
13 | 1.5 |  |  | 142 | 29.7 | COc1cc(-c2nc(N3C[C@@H](O)[C@@H]3C)nc3c2CCC3(F)F)cc2c1[C@@H](NS(C)(=O)=O)CO2 [Example 530]
14 | 33.6 | > 500 | 314 |  |  | C[C@H]1[C@H](O)CN1c1nc(-c2ccc3c(c2)CCCCC3NS(C)(=O)=O)c2c(n1)C(F)(F)CC2 (stereo partly drawn) [Example 547, N-(2-(7,7-difluoro-2-((2S,3R)-3-hydroxy-2-methylazetidin-1-yl)-6,7-dihydro-5H-cyclopenta[d]pyrimidin-4-yl)-6,7,8,9-tetrahydro-5H-benzo[7]annulen-5-yl)methanesulfonamide]
15 | 1.8 | 23.2 | 9.1 |  |  | C[C@H]1[C@H](F)CN1c1nc(-c2ccc3c(c2)O[C@H](CO)CNC3=O)c2c(n1)C(F)(F)CC2 [Example 590, (S)-8-(7,7-difluoro-2-((2S,3R)-3-fluoro-2-methylazetidin-1-yl)-6,7-dihydro-5H-cyclopenta[d]pyrimidin-4-yl)-2-(hydroxymethyl)-3,4-dihydrobenzo[f][1,4]oxazepin-5(2H)-one]
16 | 5.5 | 36 | 13.5 |  |  | CCC1CNC(=O)c2ccc(-c3nc(N4C[C@@H](O)[C@@H]4C)nc4c3CCC4(F)F)cc2O1 (stereo partly drawn) [Example 591, 8-(7,7-difluoro-2-((2S,3R)-3-hydroxy-2-methylazetidin-1-yl)-6,7-dihydro-5H-cyclopenta[d]pyrimidin-4-yl)-2-ethyl-3,4-dihydrobenzo[f][1,4]oxazepin-5(2H)-one]
17 | 3.3 | 21 | 12.6 |  |  | C[C@H]1[C@H](O)CN1c1nc(-c2ccc3c(c2)OC(CF)CNC3=O)c2c(n1)C(F)(F)CC2 (stereo partly drawn) [Example 594, 8-(7,7-difluoro-2-((2S,3R)-3-hydroxy-2-methylazetidin-1-yl)-6,7-dihydro-5H-cyclopenta[d]pyrimidin-4-yl)-2-(fluoromethyl)-3,4-dihydrobenzo[f][1,4]oxazepin-5(2H)-one]
18 | 59.7 | > 500 | 92.9 |  |  | C[C@H]1CCN1c1nc2c(c(-c3cccc(S(=N)(=O)C(F)F)c3)n1)CCC2 (stereo partly drawn) [Example 602, (difluoromethyl)(imino)(3-(2-((S)-2-methylazetidin-1-yl)-6,7-dihydro-5H-cyclopenta[d]pyrimidin-4-yl)phenyl)-λ^6-sulfanone]
19 | 25.5 | 103 | 77.2 |  |  | C[C@H]1[C@H](O)CN1c1nc(-c2cccc(S(=N)(=O)C(F)F)c2)c2c(n1)C(F)(F)CC2 (stereo partly drawn) [Example 603, (3-(7,7-difluoro-2-((2S,3R)-3-hydroxy-2-methylazetidin-1-yl)-6,7-dihydro-5H-cyclopenta[d]pyrimidin-4-yl)phenyl)(difluoromethyl)(imino)-λ^6-sulfanone]
20 | 0.7 | 23.2 | 6.8 |  |  | C[C@H]1CCN1c1nc(-c2ccc3c(c2)[C@H](NS(C)(=O)=O)CC3)c2c(n1)C(F)(F)CC2 [Example 608, N—((R)-6-(7,7-difluoro-2-((S)-2-methylazetidin-1-yl)-6,7-dihydro-5H-cyclopenta[d]pyrimidin-4-yl)-2,3-dihydro-1H-inden-1-yl)methanesulfonamide]
21 | 3.5 |  |  | 30.7 | 10.2 | C[C@H]1[C@H](O)CN1c1nc(-c2cccc([C@H]3CCS(=O)(=O)N3)c2)c2c(n1)C(F)(F)CC2 [Example 617]
22 | 9.7 | 113 | 19.1 |  |  | C[C@H]1[C@H](O)CN1c1nc(-c2cccc(CN3CCCS3(=O)=O)c2)c2c(n1)C(F)(F)CC2 [Example 620]
23 | 1.5 | 72.2 | 17.6 |  |  | C[C@H]1[C@H](O)CN1c1nc(-c2ccc3c(c2)OC[C@@H]3NS(=O)(=O)C2CC2)c2c(n1)C(F)(F)CC2 [Example 625]
24 | 26.8 | 123 | 35.6 |  |  | C[C@H]1[C@H](O)CN1c1nc(-c2ccc3c(c2)OC[C@@H]3NS(=O)(=O)c2ccccc2)c2c(n1)C(F)(F)CC2 [Example 626, N-((R)-6-(7,7-difluoro-2-((2S,3R)-3-hydroxy-2-methylazetidin-1-yl)-6,7-dihydro-5H-cyclopenta[d]pyrimidin-4-yl)-2,3-dihydrobenzofuran-3-yl)benzenesulfonamide]
25 | 6 | 4.1 | 4.5 |  |  | C[C@H]1[C@H](O)CN1c1nc(-c2ccc3c(c2)OC[C@@H]3NS(=O)(=O)CC#N)c2c(n1)C(F)(F)CC2 [Example 627, 1-cyano-N-((R)-6-(7,7-difluoro-2-((2S,3R)-3-hydroxy-2-methylazetidin-1-yl)-6,7-dihydro-5H-cyclopenta[d]pyrimidin-4-yl)-2,3-dihydrobenzofuran-3-yl)methanesulfonamide]
